Legend:
Experiment in all cases: Test D pre-/postemergence controlled growth environment herbicide test
Type in all cases: in vivo
Details in all cases: scale 0 to 100
[1] = tested on: lambsquarters (Chenopodium album)
Outline: (§1)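 Herbicidal effect, both preemergence (silt loam soil) and postemergence (1- to 4-leaf plants, peat-based medium), was scored 14–21 d post-treatment on a 0–100 control scale relative to untreated plants; applications used a non-phytotoxic solvent formulation with surfactant.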

kochia (Kochia scoparia) = tested on: kochia (Kochia scoparia)
Outline: as §1

[2] = tested on: oilseed rape (Brassica napus)
Outline: as §1

[3] = tested on: oat, wild (wild oat, Avena fatua)
Outline: as §1

[4] = tested on: field violet (Viola arvensis)
Outline: as §1

## Cc1cc(=O)n(-c2ccc(F)cc2)nc1Cc1ccnc(C(F)(F)F)c1 [Compound 1, 2-(4-fluorophenyl)-5-methyl-6-[[2-(trifluoromethyl)-4-pyridinyl]methyl]-3(2H)-pyridazinone]
[1]; Postemergence, 31 g ai/ha
  Plant response rating: 20
[1]; Postemergence, 62 g ai/ha
  Plant response rating: 20
[1]; Postemergence, 125 g ai/ha
  Plant response rating: 40
[1]; Postemergence, 250 g ai/ha
  Plant response rating: 40
[1]; Postemergence, 500 g ai/ha
  Plant response rating: 45
[1]; Preemergence, 31 g ai/ha
  Plant response rating: 0
[1]; Preemergence, 62 g ai/ha
  Plant response rating: 0
[1]; Preemergence, 125 g ai/ha
  Plant response rating: 20
[1]; Preemergence, 250 g ai/ha
  Plant response rating: 90
[1]; Preemergence, 500 g ai/ha
  Plant response rating: 100
Kochia (Kochia scoparia); Postemergence, 31 g ai/ha
  Plant response rating: 15
Kochia (Kochia scoparia); Postemergence, 62 g ai/ha
  Plant response rating: 20
Kochia (Kochia scoparia); Postemergence, 125 g ai/ha
  Plant response rating: 30
Kochia (Kochia scoparia); Postemergence, 250 g ai/ha
  Plant response rating: 50
Kochia (Kochia scoparia); Postemergence, 500 g ai/ha
  Plant response rating: 70
Kochia (Kochia scoparia); Preemergence, 31 g ai/ha
  Plant response rating: 70
Kochia (Kochia scoparia); Preemergence, 125 g ai/ha
  Plant response rating: 80
Kochia (Kochia scoparia); Preemergence, 250 g ai/ha
  Plant response rating: 100
Kochia (Kochia scoparia); Preemergence, 500 g ai/ha
  Plant response rating: 100
[2]; Postemergence, 31 g ai/ha
  Plant response rating: 35
[2]; Postemergence, 62 g ai/ha
  Plant response rating: 40
[2]; Postemergence, 125 g ai/ha
  Plant response rating: 50
[2]; Postemergence, 250 g ai/ha
  Plant response rating: 75
[2]; Postemergence, 500 g ai/ha
  Plant response rating: 80
[2]; Preemergence, 31 g ai/ha
  Plant response rating: 30
[2]; Preemergence, 62 g ai/ha
  Plant response rating: 30
[2]; Preemergence, 125 g ai/ha
  Plant response rating: 40
[2]; Preemergence, 250 g ai/ha
  Plant response rating: 75
[2]; Preemergence, 500 g ai/ha
  Plant response rating: 98
[3]; Postemergence, 31 g ai/ha
  Plant response rating: 10
[3]; Postemergence, 62 g ai/ha
  Plant response rating: 10
[3]; Postemergence, 125 g ai/ha
  Plant response rating: 10
[3]; Postemergence, 250 g ai/ha
  Plant response rating: 10
[3]; Postemergence, 500 g ai/ha
  Plant response rating: 10
[3]; Preemergence, 62 g ai/ha
  Plant response rating: 0
[3]; Preemergence, 125 g ai/ha
  Plant response rating: 15
[3]; Preemergence, 250 g ai/ha
  Plant response rating: 35
[3]; Preemergence, 500 g ai/ha
  Plant response rating: 80
[4]; Postemergence, 31 g ai/ha
  Plant response rating: 20
[4]; Postemergence, 62 g ai/ha
  Plant response rating: 50
[4]; Postemergence, 125 g ai/ha
  Plant response rating: 75
[4]; Postemergence, 250 g ai/ha
  Plant response rating: 80
[4]; Postemergence, 500 g ai/ha
  Plant response rating: 90
[4]; Preemergence, 31 g ai/ha
  Plant response rating: 60
[4]; Preemergence, 62 g ai/ha
  Plant response rating: 80
[4]; Preemergence, 125 g ai/ha
  Plant response rating: 90
[4]; Preemergence, 250 g ai/ha
  Plant response rating: 98
[4]; Preemergence, 500 g ai/ha
  Plant response rating: 100

## Cc1cc(=O)n(-c2ccc(C(F)(F)F)cc2)nc1Cc1ccnc(C(F)(F)F)c1 [Compound 2, 5-methyl-2-[4-(trifluoromethyl)phenyl]-6-[[2-(trifluoromethyl)-4-pyridinyl]methyl]-3(2H)-pyridazinone]
[1]; Postemergence, 31 g ai/ha
  Plant response rating: 20
[1]; Postemergence, 62 g ai/ha
  Plant response rating: 20
[1]; Postemergence, 125 g ai/ha
  Plant response rating: 40
[1]; Postemergence, 250 g ai/ha
  Plant response rating: 80
[1]; Postemergence, 500 g ai/ha
  Plant response rating: 90
[1]; Preemergence, 31 g ai/ha
  Plant response rating: 20
[1]; Preemergence, 62 g ai/ha
  Plant response rating: 75
[1]; Preemergence, 125 g ai/ha
  Plant response rating: 75
[1]; Preemergence, 250 g ai/ha
  Plant response rating: 90
[1]; Preemergence, 500 g ai/ha
  Plant response rating: 90
Kochia (Kochia scoparia); Postemergence, 31 g ai/ha
  Plant response rating: 40
Kochia (Kochia scoparia); Postemergence, 62 g ai/ha
  Plant response rating: 70
Kochia (Kochia scoparia); Postemergence, 125 g ai/ha
  Plant response rating: 80
Kochia (Kochia scoparia); Postemergence, 250 g ai/ha
  Plant response rating: 85
Kochia (Kochia scoparia); Postemergence, 500 g ai/ha
  Plant response rating: 85
Kochia (Kochia scoparia); Preemergence, 31 g ai/ha
  Plant response rating: 20
Kochia (Kochia scoparia); Preemergence, 62 g ai/ha
  Plant response rating: 30
Kochia (Kochia scoparia); Preemergence, 125 g ai/ha
  Plant response rating: 100
Kochia (Kochia scoparia); Preemergence, 250 g ai/ha
  Plant response rating: 100
Kochia (Kochia scoparia); Preemergence, 500 g ai/ha
  Plant response rating: 100
[2]; Postemergence, 31 g ai/ha
  Plant response rating: 60
[2]; Postemergence, 62 g ai/ha
  Plant response rating: 75
[2]; Postemergence, 125 g ai/ha
  Plant response rating: 80
[2]; Postemergence, 250 g ai/ha
  Plant response rating: 98
[2]; Postemergence, 500 g ai/ha
  Plant response rating: 100
[2]; Preemergence, 31 g ai/ha
  Plant response rating: 20
[2]; Preemergence, 62 g ai/ha
  Plant response rating: 20
[2]; Preemergence, 125 g ai/ha
  Plant response rating: 50
[2]; Preemergence, 250 g ai/ha
  Plant response rating: 95
[2]; Preemergence, 500 g ai/ha
  Plant response rating: 95
[3]; Postemergence, 31 g ai/ha
  Plant response rating: 10
[3]; Postemergence, 62 g ai/ha
  Plant response rating: 10
[3]; Postemergence, 125 g ai/ha
  Plant response rating: 10
[3]; Postemergence, 250 g ai/ha
  Plant response rating: 15
[3]; Postemergence, 500 g ai/ha
  Plant response rating: 30
[3]; Preemergence, 31 g ai/ha
  Plant response rating: 0
[3]; Preemergence, 62 g ai/ha
  Plant response rating: 0
[3]; Preemergence, 125 g ai/ha
  Plant response rating: 35
[3]; Preemergence, 250 g ai/ha
  Plant response rating: 80
[3]; Preemergence, 500 g ai/ha
  Plant response rating: 80
[4]; Postemergence, 31 g ai/ha
  Plant response rating: 50
[4]; Postemergence, 62 g ai/ha
  Plant response rating: 90
[4]; Postemergence, 125 g ai/ha
  Plant response rating: 100
[4]; Postemergence, 250 g ai/ha
  Plant response rating: 100
[4]; Postemergence, 500 g ai/ha
  Plant response rating: 100
[4]; Preemergence, 31 g ai/ha
  Plant response rating: 60
[4]; Preemergence, 62 g ai/ha
  Plant response rating: 80
[4]; Preemergence, 125 g ai/ha
  Plant response rating: 90
[4]; Preemergence, 250 g ai/ha
  Plant response rating: 100
[4]; Preemergence, 500 g ai/ha
  Plant response rating: 100

## Cc1cc(=O)n(-c2ccc(F)cc2)nc1Oc1ccnc(C(F)(F)F)c1 [Compound 14, 2-(4-fluorophenyl)-5-methyl-6-[[2-(trifluoromethyl)-4-pyridinyl]oxy]-3 (2H)-pyridazinone]
[1]; Postemergence, 16 g ai/ha
  Plant response rating: 55
[1]; Postemergence, 31 g ai/ha
  Plant response rating: 60
[1]; Postemergence, 62 g ai/ha
  Plant response rating: 70
[1]; Postemergence, 125 g ai/ha
  Plant response rating: 80
[1]; Postemergence, 250 g ai/ha
  Plant response rating: 90
[1]; Preemergence, 16 g ai/ha
  Plant response rating: 5
[1]; Preemergence, 31 g ai/ha
  Plant response rating: 25
[1]; Preemergence, 62 g ai/ha
  Plant response rating: 20
[1]; Preemergence, 125 g ai/ha
  Plant response rating: 95
[1]; Preemergence, 250 g ai/ha
  Plant response rating: 95
Kochia (Kochia scoparia); Postemergence, 16 g ai/ha
  Plant response rating: 60
Kochia (Kochia scoparia); Postemergence, 31 g ai/ha
  Plant response rating: 60
Kochia (Kochia scoparia); Postemergence, 62 g ai/ha
  Plant response rating: 65
Kochia (Kochia scoparia); Postemergence, 125 g ai/ha
  Plant response rating: 85
Kochia (Kochia scoparia); Postemergence, 250 g ai/ha
  Plant response rating: 90
Kochia (Kochia scoparia); Preemergence, 16 g ai/ha
  Plant response rating: 35
Kochia (Kochia scoparia); Preemergence, 31 g ai/ha
  Plant response rating: 65
Kochia (Kochia scoparia); Preemergence, 62 g ai/ha
  Plant response rating: 95
Kochia (Kochia scoparia); Preemergence, 125 g ai/ha
  Plant response rating: 70
Kochia (Kochia scoparia); Preemergence, 250 g ai/ha
  Plant response rating: 100
[2]; Postemergence, 16 g ai/ha
  Plant response rating: 25
[2]; Postemergence, 31 g ai/ha
  Plant response rating: 50
[2]; Postemergence, 62 g ai/ha
  Plant response rating: 15
[2]; Postemergence, 125 g ai/ha
  Plant response rating: 45
[2]; Postemergence, 250 g ai/ha
  Plant response rating: 55
[2]; Preemergence, 16 g ai/ha
  Plant response rating: 0
[2]; Preemergence, 31 g ai/ha
  Plant response rating: 5
[2]; Preemergence, 62 g ai/ha
  Plant response rating: 10
[2]; Preemergence, 125 g ai/ha
  Plant response rating: 15
[2]; Preemergence, 250 g ai/ha
  Plant response rating: 70
[3]; Postemergence, 16 g ai/ha
  Plant response rating: 10
[3]; Postemergence, 31 g ai/ha
  Plant response rating: 10
[3]; Postemergence, 62 g ai/ha
  Plant response rating: 15
[3]; Postemergence, 125 g ai/ha
  Plant response rating: 20
[3]; Postemergence, 250 g ai/ha
  Plant response rating: 30
[3]; Preemergence, 16 g ai/ha
  Plant response rating: 0
[3]; Preemergence, 31 g ai/ha
  Plant response rating: 0
[3]; Preemergence, 62 g ai/ha
  Plant response rating: 0
[3]; Preemergence, 125 g ai/ha
  Plant response rating: 10
[3]; Preemergence, 250 g ai/ha
  Plant response rating: 20
[4]; Postemergence, 16 g ai/ha
  Plant response rating: 60
[4]; Postemergence, 31 g ai/ha
  Plant response rating: 70
[4]; Postemergence, 62 g ai/ha
  Plant response rating: 65
[4]; Postemergence, 125 g ai/ha
  Plant response rating: 100
[4]; Postemergence, 250 g ai/ha
  Plant response rating: 100
[4]; Preemergence, 16 g ai/ha
  Plant response rating: 85
[4]; Preemergence, 31 g ai/ha
  Plant response rating: 95
[4]; Preemergence, 62 g ai/ha
  Plant response rating: 100
[4]; Preemergence, 125 g ai/ha
  Plant response rating: 95
[4]; Preemergence, 250 g ai/ha
  Plant response rating: 100
